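Grown in 96-well plates, cells were treated for 48 hours with each compound at five concentrations. Insufficient inhibition: endpoint recorded as highest concentration tested. Here, GI50 denotes the concentration required for 50% inhibition of growth.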 The source made the active and inactive calls. No stated cut-off is given here; in the data, active = GI50 up to about 1.1 µM and inactive = higher.
Legend:
Experiment in all cases: DTP human tumour cell line panel, 48 h
786-0 = system: 786-0
A498 = system: A498
A549 = system: A549
CCRF-CEM = system: CCRF-CEM
HOP-92 = system: HOP-92
HT-29 = system: HT-29
IGROV-1 = system: IGROV-1
K562 = system: K562
M14 = system: M14
MDA-MB-435 = system: MDA-MB-435
MDA-N = system: MDA-N
NCI-H226 = system: NCI-H226
NCI-H23 = system: NCI-H23
NCI-H522 = system: NCI-H522
SNB-19 = system: SNB-19
SW-620 = system: SW-620
T47D = system: T47D
UACC-257 = system: UACC-257
UACC-62 = system: UACC-62
SNB-75 = system: SNB-75

| Structure (SMILES) | GI50 (786-0) | GI50 (A498) | GI50 (A549) | GI50 (CCRF-CEM) | GI50 (HOP-92) | GI50 (HT-29) | GI50 (IGROV-1) | GI50 (K562) | GI50 (M14) | GI50 (MDA-MB-435) | GI50 (MDA-N) | GI50 (NCI-H226) | GI50 (NCI-H23) | GI50 (NCI-H522) | GI50 (SNB-19) | GI50 (SW-620) | GI50 (T47D) | GI50 (UACC-257) | GI50 (UACC-62) | GI50 (SNB-75) |
| --- | --- | --- | --- | --- | --- | --- | --- | --- | --- | --- | --- | --- | --- | --- | --- | --- | --- | --- | --- | --- |
| COc1cccc2c(NNc3ccccc3)c3ccc([N+](=O)[O-])cc3nc12 | 21.2 µM (inactive) | 43.5 µM (inactive) | 24.2 µM (inactive) | 12.5 µM (inactive) | 26.4 µM (inactive) | 23.6 µM (inactive) | 21.7 µM (inactive) | 83.4 µM (inactive) | 24 µM (inactive) | 18.1 µM (inactive) | 33.1 µM (inactive) | 24.9 µM (inactive) | 20.5 µM (inactive) | 24.7 µM (inactive) | > 100 µM (inactive) | 24.9 µM (inactive) | 36.4 µM (inactive) | 29.9 µM (inactive) | 6.41 µM (inactive) | – |
| CCOC(=O)c1sc2nc(SC)nc(Nc3ccc(OC)c(OC)c3)c2c1N | 5.51 µM (inactive) | 4.76 µM (inactive) | 5.28 µM (inactive) | 1.3 µM (inactive) | 9.89 µM (inactive) | 78 µM (inactive) | > 100 µM (inactive) | > 100 µM (inactive) | 42.4 µM (inactive) | 34.3 µM (inactive) | > 100 µM (inactive) | 7.94 µM (inactive) | 3.52 µM (inactive) | 5.79 µM (inactive) | 18 µM (inactive) | 7 µM (inactive) | 6.08 µM (inactive) | > 100 µM (inactive) | 4.74 µM (inactive) | – |
| CO/N=C(\C)c1ccc(Nc2nc3ccccc3c3occc23)cc1 | 14.2 µM (inactive) | 16 µM (inactive) | 17.3 µM (inactive) | 16 µM (inactive) | 13.8 µM (inactive) | 3.03 µM (inactive) | 16.1 µM (inactive) | 20.2 µM (inactive) | 16.3 µM (inactive) | 16.4 µM (inactive) | 14.6 µM (inactive) | 8.18 µM (inactive) | 14.7 µM (inactive) | 10.8 µM (inactive) | 15.5 µM (inactive) | – | 12.6 µM (inactive) | 17.3 µM (inactive) | 12.1 µM (inactive) | – |
| CC(C)NC(=O)OCc1c2c(n(C)c1COC(=O)NC(C)C)-c1cc(Cl)c(Cl)cc1CC2 | 37.2 µM (inactive) | 6.37 µM (inactive) | 61 µM (inactive) | 17.2 µM (inactive) | 19.5 µM (inactive) | 31 µM (inactive) | 20.3 µM (inactive) | 16.6 µM (inactive) | 27.9 µM (inactive) | 33.7 µM (inactive) | 32 µM (inactive) | 8.91 µM (inactive) | 22.1 µM (inactive) | – | 37.8 µM (inactive) | 45.7 µM (inactive) | 22.6 µM (inactive) | 28.4 µM (inactive) | 43.9 µM (inactive) | 29.4 µM (inactive) |
| O=S(=O)(O)c1ccc(/N=N\c2c(O)ccc3cc(Br)ccc23)cc1 | > 100 µM (inactive) | > 100 µM (inactive) | > 100 µM (inactive) | > 100 µM (inactive) | > 100 µM (inactive) | > 100 µM (inactive) | > 100 µM (inactive) | > 10 µM (inactive) | > 100 µM (inactive) | > 100 µM (inactive) | > 100 µM (inactive) | – | > 100 µM (inactive) | > 100 µM (inactive) | > 100 µM (inactive) | > 100 µM (inactive) | > 100 µM (inactive) | > 100 µM (inactive) | > 100 µM (inactive) | > 100 µM (inactive) |
| N#Cc1ccc(/C=[N+](/C=c2ccc(=C=[N-])cc2)N(CCO)C2=NCCN2)cc1 | > 100 µM (inactive) | > 100 µM (inactive) | > 100 µM (inactive) | > 100 µM (inactive) | – | > 100 µM (inactive) | > 100 µM (inactive) | > 100 µM (inactive) | > 100 µM (inactive) | > 100 µM (inactive) | > 100 µM (inactive) | > 100 µM (inactive) | > 100 µM (inactive) | 71 µM (inactive) | > 100 µM (inactive) | > 100 µM (inactive) | > 100 µM (inactive) | > 100 µM (inactive) | > 100 µM (inactive) | > 100 µM (inactive) |
| COC1=CC(=O)c2c(cc(COP(N)(=O)N(CCBr)CCBr)n2C)C1=O (configuration not stated) | < 0.01 µM (active) | 1.26 µM (inactive) | < 0.01 µM (active) | < 0.01 µM (active) | – | 0.012 µM (active) | 0.0188 µM (active) | 0.135 µM (active) | < 0.01 µM (active) | 1.16 µM (inactive) | 0.242 µM (active) | < 0.01 µM (active) | < 0.01 µM (active) | < 0.01 µM (active) | 1.3 µM (inactive) | < 0.01 µM (active) | < 0.01 µM (active) | 1.2 µM (inactive) | < 0.01 µM (active) | < 0.01 µM (active) |

— ChEMBL document CHEMBL1201862, “PubChem BioAssay data set” (2004)
